Measured values from US20140107021A1 (priority 2010, published 2014).
Where two headings read alike, the source gives them in different places. One block for each compound: values may come before it. Numbered stars: 1 amine (or outer) side, 2 acyl side, 3 side chain; on linkers, the order of the positions; unused ones are H or OH. Square brackets hold non-standard residues; d marks the D form. Side chains are listed from the residue outwards. Ends that are not written are not given here. Peptide text beside a SMILES is read from it. γGlu = O=C(O)[C@H](CCC(=O)[*:2])N[*:1]; C16 acyl = 16 carbon fatty acyl group; Aib = CC(C)(N)C(=O)O

Experiments:
[1] = molecular target: T1, glucagon receptor (Homo sapiens, UniProt P47871); assay: cell-based; conditions: Table J
Source text: (§1) HEK293 cells co-transfected with the receptor and luciferase gene linked to a cAMP responsive element were employed for the bioassay.
(§2) All EC50s and IC50s are reported in the following examples in nM, unless indicated otherwise.

[2] = solubility at pH 6-8; type: physicochemical
[3] = molecular target: T1, glucagon receptor; assay: glucagon receptor binding; parameters: expressed in transfected cells; host or cells: HEK293; conditions: read-out: IC50(nM) (Receptor binding)
[4] = molecular target: T2, GLP-1 receptor (Homo sapiens, UniProt P43220); assay: cAMP induction at the GLP-1 receptor (agonist activity), firefly luciferase reporter assay in HEK293 cells; type: cell-based
T2 construct: expressed in transfected cells; host or cells: HEK293
Source text: as §1, §2

[5] = molecular target: T3, GIP receptor (Homo sapiens, UniProt P48546); assay: cAMP induction at the GIP receptor (agonist activity), luciferase reporter assay in HEK293 cells; type: cell-based; conditions: for EC50: read-out: GIPR EC50
T3 construct: expressed in transfected cells; host or cells: HEK293
T3 sequence (P48546 22-466): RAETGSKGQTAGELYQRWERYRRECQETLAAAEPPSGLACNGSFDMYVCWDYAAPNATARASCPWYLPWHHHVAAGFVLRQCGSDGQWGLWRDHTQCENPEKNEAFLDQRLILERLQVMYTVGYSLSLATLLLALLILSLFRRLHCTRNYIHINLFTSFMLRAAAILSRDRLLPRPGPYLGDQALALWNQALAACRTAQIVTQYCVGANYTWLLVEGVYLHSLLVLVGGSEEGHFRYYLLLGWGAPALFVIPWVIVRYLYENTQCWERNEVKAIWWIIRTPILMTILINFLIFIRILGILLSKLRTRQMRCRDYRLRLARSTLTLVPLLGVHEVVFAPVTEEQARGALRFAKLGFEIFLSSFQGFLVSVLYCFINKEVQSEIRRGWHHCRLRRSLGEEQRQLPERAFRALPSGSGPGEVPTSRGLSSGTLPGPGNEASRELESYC
Source text: as §1, §2

[6] = type: in vivo, C57Bl/6 mice; conditions: 30 nmol/kg subcutaneously daily for one week
[7] = Example 10: MT-263 under varied administration regimen in diet-induced obesity mice, 6 day study; type: in vivo, Diet-induced obesity (DIO) mice; conditions: injected on a daily basis (10 nmol/kg), compared with every 2 or 3 days
Method: Diet-induced obesity (DIO) mice (N=8, 10 mice per group) were injected during the course of the 6 day study as follows: […]

[8] = molecular target: T1, glucagon receptor; assay: cAMP induction at the glucagon receptor (agonist activity), luciferase reporter assay in HEK293 cells; type: cell-based; parameters: expressed in transfected cells; host or cells: HEK293; conditions: for EC50: read-out: GR EC50
Source text: as §1, §2

[9] = Example 8: acylated peptides injected subcutaneously daily for one week into DIO mice; type: in vivo, DIO mice (C57Bl/6 WT); conditions: 10 nmol/kg subcutaneously daily for one week
Method: Different doses of acylated peptides comprising a Lys at position 16 and an AIB at position 20 were tested in vivo. […] The mice had been on a high fat diet diet for ˜8 months. Body weight and food intake were measured on days 0, 1, 3, 5, and 7, whereas blood glucose levels were measured on Days 0 and 7 of the experiment. Each test group and control group consisted of 8 mice.

[10] = IC50(nM) (cAMP, inhibit Glucagon) 0.1 nM, inhibit 0.1 nM glucagon
[11] = Table 7, relative to the native ligand of the receptor

T2 sequence (P43220 24-463): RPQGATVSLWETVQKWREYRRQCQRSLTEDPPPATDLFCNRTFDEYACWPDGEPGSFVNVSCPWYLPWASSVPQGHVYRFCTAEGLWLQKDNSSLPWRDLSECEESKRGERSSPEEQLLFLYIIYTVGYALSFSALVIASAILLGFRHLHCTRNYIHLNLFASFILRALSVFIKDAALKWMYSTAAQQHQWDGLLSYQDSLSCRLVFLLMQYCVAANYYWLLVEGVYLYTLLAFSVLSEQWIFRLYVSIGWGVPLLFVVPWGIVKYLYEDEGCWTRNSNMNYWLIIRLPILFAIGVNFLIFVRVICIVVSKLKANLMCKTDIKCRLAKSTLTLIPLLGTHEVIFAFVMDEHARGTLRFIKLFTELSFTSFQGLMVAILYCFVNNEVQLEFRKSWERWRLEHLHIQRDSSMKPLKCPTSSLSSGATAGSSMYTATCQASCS
T1 sequence (P47871 26-477): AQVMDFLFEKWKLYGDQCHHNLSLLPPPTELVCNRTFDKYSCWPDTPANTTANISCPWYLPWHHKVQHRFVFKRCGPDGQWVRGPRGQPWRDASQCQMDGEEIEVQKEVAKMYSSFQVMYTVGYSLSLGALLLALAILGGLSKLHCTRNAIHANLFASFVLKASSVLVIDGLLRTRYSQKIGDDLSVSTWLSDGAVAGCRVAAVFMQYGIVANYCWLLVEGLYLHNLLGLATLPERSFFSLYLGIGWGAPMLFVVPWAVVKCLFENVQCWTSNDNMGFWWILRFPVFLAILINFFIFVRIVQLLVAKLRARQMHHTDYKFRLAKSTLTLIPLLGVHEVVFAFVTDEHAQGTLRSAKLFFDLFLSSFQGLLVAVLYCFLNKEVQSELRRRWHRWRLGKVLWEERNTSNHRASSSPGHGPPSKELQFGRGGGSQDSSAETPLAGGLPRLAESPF

Compound: CSCC[C@H](NC(=O)[C@H](CC(C)C)NC(=O)[C@H](Cc1c[nH]c2ccccc12)NC(=O)[C@H](CCC(N)=O)NC(=O)[C@@H](NC(=O)[C@H](Cc1ccccc1)NC(=O)[C@H](CC(=O)O)NC(=O)[C@H](CCC(N)=O)NC(=O)[C@H](C)NC(=O)[C@H](CCCNC(=N)N)NC(=O)[C@H](CCCNC(=N)N)NC(=O)[C@H](CO)NC(=O)[C@H](CC(=O)O)NC(=O)[C@H](CC(C)C)NC(=O)[C@H](Cc1ccc(O)cc1)NC(=O)[C@H](CCCCN)NC(=O)[C@H](CO)NC(=O)[C@H](Cc1ccc(O)cc1)NC(=O)[C@H](CCC(=O)O)NC(=O)[C@H](CO)NC(=O)[C@@H](NC(=O)[C@@H](O)Cc1ccccc1)[C@@H](C)O)C(C)C)C(=O)N[C@@H](CC(N)=O)C(=O)N[C@H](C(=O)NCC(=O)N1CCC[C@H]1C(=O)N[C@@H](CO)C(=O)N[C@@H](CO)C(=O)NCC(=O)N[C@@H](C)C(=O)N1CCC[C@H]1C(=O)N1CCC[C@H]1C(=O)N1CCC[C@H]1C(=O)N[C@@H](CO)C(N)=O)[C@@H](C)O [[PLA6, E9]Glucagon (aa6-29 + CEX)-NH2] (HELM PEPTIDE1{[O=C([C@@H](O)Cc1ccccc1)[*:2]].T.S.E.Y.S.K.Y.L.D.S.R.R.A.Q.D.F.V.Q.W.L.M.N.T.G.P.S.S.G.A.P.P.P.S.[am]}$$$$V2.0)
IC50 [1, 10]: 24.8 nM
Solubility (%, pH 6-8) [2]: 16%
IC50 ([3]; Table J): 40.3 ± 11.3 nM

IC50 [1, 10]: 2.39 nM
IC50 ([1]; IC50(nM) (cAMP, inhibit Glucagon) 0.2 nM, inhibit 0.2 nM glucagon): 42.4 nM
Solubility (%, pH 6-8) [2]: 11%
IC50 ([3]; Table J): 12.3 ± 2.24 nM
IC50 ([3]; Table K): 12.3 ± 0.13 nM
Compound: CSCC[C@H](NC(=O)[C@H](CC(C)C)NC(=O)[C@H](Cc1c[nH]c2ccccc12)NC(=O)[C@H](CCC(N)=O)NC(=O)[C@@H](NC(=O)[C@H](Cc1ccccc1)NC(=O)[C@H](CC(=O)O)NC(=O)[C@H](CCC(N)=O)NC(=O)[C@H](C)NC(=O)[C@H](CCCNC(=N)N)NC(=O)[C@H](CCCNC(=N)N)NC(=O)[C@H](CO)NC(=O)[C@H](CC(=O)O)NC(=O)[C@H](CC(C)C)NC(=O)[C@H](Cc1ccc(O)cc1)NC(=O)[C@H](CCCCN)NC(=O)[C@H](CO)NC(=O)[C@H](Cc1ccc(O)cc1)NC(=O)[C@H](CCC(=O)O)NC(=O)[C@H](CO)NC(=O)[C@@H](NC(=O)[C@@H](O)Cc1ccccc1)[C@@H](C)O)C(C)C)C(=O)N[C@@H](CC(N)=O)C(=O)N[C@H](C(N)=O)[C@@H](C)O [[PLA6, E9]Glucagon(aa6-29)-NH2] (HELM PEPTIDE1{[O=C([C@@H](O)Cc1ccccc1)[*:2]].T.S.E.Y.S.K.Y.L.D.S.R.R.A.Q.D.F.V.Q.W.L.M.N.T.[am]}$$$$V2.0)

Compound: CC[C@H](C)[C@H](NC(=O)[C@H](CO)NC(=O)[C@H](Cc1ccc(O)cc1)NC(=O)[C@H](CC(=O)O)NC(=O)[C@H](CO)NC(=O)[C@@H](NC(=O)[C@H](Cc1ccccc1)NC(=O)[C@@H](NC(=O)CNC(=O)[C@H](CCC(=O)O)NC(=O)C(C)(C)NC(=O)[C@@H](N)Cc1ccc(O)cc1)[C@@H](C)O)[C@@H](C)O)C(=O)N[C@@H](Cc1ccc(O)cc1)C(=O)N[C@@H](CC(C)C)C(=O)N[C@@H](CC(=O)O)C(=O)N[C@@H](CCCCN)C(=O)N[C@@H](CCC(N)=O)C(=O)N[C@@H](C)C(=O)N[C@@H](C)C(=O)NC(C)(C)C(=O)N[C@@H](CCC(=O)O)C(=O)N[C@@H](Cc1ccccc1)C(=O)N[C@H](C(=O)N[C@@H](CC(N)=O)C(=O)N[C@@H](Cc1c[nH]c2ccccc12)C(=O)N[C@@H](CC(C)C)C(=O)N[C@@H](CC(C)C)C(=O)N[C@@H](C)C(=O)NCC(=O)NCC(=O)N1CCC[C@H]1C(=O)N[C@@H](CO)C(=O)N[C@@H](CO)C(=O)NCC(=O)N[C@@H](C)C(=O)N1CCC[C@H]1C(=O)N1CCC[C@H]1C(=O)N1CCC[C@H]1C(=O)N[C@@H](CO)C(=O)N[C@@H](CCCCN)C(N)=O)C(C)C [mt-263, Y1Aib2E3I12K16Q17A18Aib20E21N24-LAG27-29-CEX-K]
EC50 ([4]; Table 3, read-out: GLP-1R EC50): 0.01 nM
EC50 ([5]; Table 3): 0.0054 nM
EC50 ([5]; Table 4): 0.0033 nM
change in blood glucose levels over the course of the 7-day study [6]: greatest change in blood glucose levels
weight loss compared with the Exendin-4-like positive control peptide [6]: substantially greater than the Exendin-4-like positive control peptide
weight loss over the course of the 7-day study [6]: significant weight loss
decrease in blood glucose levels [7]: biggest decrease in blood glucose levels
EC50 ([8]; Table 3): 4.04 nM
EC50 ([8]; Table 4): 3.14 nM

Compound: Q3I7K16AIB20K10(rErE-C16) (Y[Aib]QGTFISDK([γGlu-γGlu-C16 acyl])SIYLDKQAA[Aib]EFVNWLLAGGPSSGAPPPS-NH2) [MT-385]
% Relative Activity GLP-1R [4, 11]: 3%
% Relative Activity at GIPR [5, 11]: 715%
total change in body weight (%) [9]: lower change in body weight
% Relative Activity at GR [8, 11]: 239%

Compound: Y1Aib2I12K16Q17A18Aib20E21N24-LAG27-29-CEX-K (YXQGTFTSDYSIYLDKQAAXEFVNWLLAGGPSSGAPPPSK; HELM PEPTIDE1{Y.[Aib].Q.G.T.F.T.S.D.Y.S.I.Y.L.D.K.Q.A.A.[Aib].E.F.V.N.W.L.L.A.G.G.P.S.S.G.A.P.P.P.S.K.[am]}$$$$V2.0; N-terminus assumed; SMILES CC[C@H](C)[C@H](NC(=O)[C@H](CO)NC(=O)[C@H](Cc1ccc(O)cc1)NC(=O)[C@H](CC(=O)O)NC(=O)[C@H](CO)NC(=O)[C@@H](NC(=O)[C@H](Cc1ccccc1)NC(=O)[C@@H](NC(=O)CNC(=O)[C@H](CCC(N)=O)NC(=O)C(C)(C)NC(=O)[C@@H](N)Cc1ccc(O)cc1)[C@@H](C)O)[C@@H](C)O)C(=O)N[C@@H](Cc1ccc(O)cc1)C(=O)N[C@@H](CC(C)C)C(=O)N[C@@H](CC(=O)O)C(=O)N[C@@H](CCCCN)C(=O)N[C@@H](CCC(N)=O)C(=O)N[C@@H](C)C(=O)N[C@@H](C)C(=O)NC(C)(C)C(=O)N[C@@H](CCC(=O)O)C(=O)N[C@@H](Cc1ccccc1)C(=O)N[C@H](C(=O)N[C@@H](CC(N)=O)C(=O)N[C@@H](Cc1c[nH]c2ccccc12)C(=O)N[C@@H](CC(C)C)C(=O)N[C@@H](CC(C)C)C(=O)N[C@@H](C)C(=O)NCC(=O)NCC(=O)N1CCC[C@H]1C(=O)N[C@@H](CO)C(=O)N[C@@H](CO)C(=O)NCC(=O)N[C@@H](C)C(=O)N1CCC[C@H]1C(=O)N1CCC[C@H]1C(=O)N1CCC[C@H]1C(=O)N[C@@H](CO)C(=O)N[C@@H](CCCCN)C(N)=O)C(C)C) [MT-280]
% Relative Activity GLP-1R ([4]; Table 8): 225%
% Relative Activity at GIPR ([5]; Table 8): 154%
change in blood glucose levels over the course of the 7-day study [6]: significant decrease in blood glucose levels
% Relative Activity at GR ([8]; Table 8): 60%
